Consider 115 compounds from PubChem BioAssay AID1241 (SRMLSC, 2008).

Structures are written as SMILES.

A short description of this experiment: NF-kB promoter reporter activators, neuronal cells, dose response, cell-based, SH-SY5Y, luciferase (AID 1241). Conditions: fold induction.
In the case of `Cc1ccc(C(=O)Nc2ncc(Cc3ccc(F)cc3)s2)o1`, the EC50 is 6.16 µM. For `O=C1C=C(Nc2ccccc2)C(=O)c2ccccc21`, the EC50 was 1.35 µM. `COc1ccc(N=Cc2sc(O)c3ccccc23)cc1`: the EC50 is 0.992 µM. With `C=CCSc1nnc(-c2ccc(Cl)cc2Cl)o1`, the EC50 was 4.37 µM. For the compound `CCCOc1ccc(C(=O)Nc2ccc(Cl)cn2)cc1`, the 50% effective concentration (EC50) is 1.09 µM. With `COc1cccc(-c2cc(C(=O)Nc3cccc(O)c3)no2)c1`, the half-maximal effective concentration (EC50) was 0.498 µM. For `CCN(CC)c1ccc(NC(=O)c2ccccc2F)cc1`, the concentration for a half-maximal effect (EC50) was 7.39 µM.

In the case of `O=C(/C=C\Nc1ccccc1Br)c1ccc2c(c1)OCO2`, the EC50 is 0.096 µM. On to `N#C/C(=C/c1ccco1)c1nc2ccccc2s1`, for which the EC50 was 1.97 µM.

For the compound `Cc1ccc(S/C=C\C(=O)c2ccccc2)cc1`, the EC50 was 1.97 µM. As to `COCCOCCn1c(/C=C/c2ccccc2)nc2ccccc21`, the EC50 is 5.78 µM. As for `Cc1ccc(-n2cc3ccc([N+](=O)[O-])cc3n2)cc1`, the EC50 was 1.29 µM. Consider `N#CC1(c2ccc(NC(=O)c3ccccc3F)cc2)CCCC1`, for which the EC50 is 1.08 µM. As to `CC(=Nc1cccc(O)c1)c1sc2ccccc2c1O`, the EC50 is 2.2 µM.

For the compound `O=C(c1cnn(-c2ccccc2)c1)c1ccccc1O`, the EC50 is 1.71 µM. On to `Cc1ccc2nc(-c3ccc(NS(=O)(=O)c4ccc(F)c(F)c4)cc3)sc2c1`, for which the EC50 is 3.62 µM.

Regarding `Cc1cc(C)c[n+](-c2nc3ccccc3nc2C(=C=[N-])C#N)c1`, the EC50 is 28 µM. On to `CN(c1ccc(O)cc1)c1nc(-c2ccccc2)cs1`, for which the EC50 was 1.02 µM. In the case of `O=C(N/N=C/C(Br)=C/c1ccccc1)c1cccs1`, the EC50 is 18.2 µM. As for `Cc1ccc(OCCSc2ncccn2)c(C)c1`, the figure is 5.42 µM; as for `O=C(c1cccs1)c1ccc(-c2cccs2)s1`, 0.623 µM; as for `Cc1ccc2nc(NC(=S)NC(=O)c3cccs3)sc2c1`, 2.23 µM.

In the case of `CCCCCCCOc1ccc(OC(=O)c2ccncc2)cc1`, the EC50 is 0.107 µM. In the case of `COC(=O)c1cccc(NC(=O)c2onc3c2CCCC3)c1` it was 2.04 µM; in that of `O=C(CCS(=O)(=O)c1ccccc1)Nc1ccc(-c2nc3ccccc3s2)cc1`, 1.14 µM; in that of `COc1ccc(N=C(C)C2=C(O)c3ccccc3C2=O)cc1`, 0.889 µM.

On to `O=C(O)c1cccc(COc2ccccc2Cl)c1`, for which the EC50 is 1.35 µM. As for `COc1ccc(-c2cc(-c3cc(C)ccc3O)[nH]n2)cc1`, the figure is 16 µM.

Turning to `Clc1ccccc1OCc1nc(-c2ccccn2)no1`, the concentration for a half-maximal effect (EC50) is 2.1 µM.

Turning to `OCc1cn(-c2ccccc2)nc1-c1cc2ccccc2o1`, the EC50 was 6.68 µM. Turning to `Oc1c(-c2cc(-c3ccco3)[nH]n2)ccc2ccccc12`, the EC50 was 5.56 µM. As for `COc1cccc(N/C=C/C(=O)c2ccc(Cl)cc2)c1`, the figure is 0.652 µM. For `Cc1c(-c2nc(N)nc(Nc3ccccc3F)n2)oc2ccccc12`, the EC50 is 2.02 µM. As to `COc1ccc(-c2csc(-c3ccccc3)n2)c(OC)c1`, the EC50 is 6.74 µM. As to `CCN(CC)c1ccc(/C=N/NC(=S)NC)c(O)c1`, the EC50 is 1.98 µM. As for `CN1/C(=C/C(=O)c2cccs2)Sc2ccccc21`, the figure is 0.685 µM; as for `O=C(NCc1ccco1)c1ccc([N+](=O)[O-])o1`, 6.89 µM; as for `CNc1nc(-c2ccc3c(c2)CCN3C(=O)c2ccccc2F)cs1`, 2.66 µM.

For the compound `Cc1ccc(C(=O)COC(=O)c2cccs2)cc1`, the EC50 was 2.45 µM. For `Nc1ccc(-c2nc3ccc([N+](=O)[O-])cc3[nH]2)cc1`, the EC50 is 1.65 µM. Consider `CCN(CC)C(=O)c1sc2nc(-c3ccccc3)ccc2c1N`, for which the EC50 is 3.09 µM.

As for `Cc1ccc(-n2nnc(-c3cccnc3Cl)n2)cc1`, the EC50 is 4.75 µM.

In the case of `COc1ccc(-c2nc(-c3ccc(Br)o3)no2)cc1`, the EC50 is 2.01 µM.

Take `Clc1ccc(OCc2nc(-c3ccncc3)no2)c(Cl)c1`: the EC50 was 1.12 µM. On to `CSc1ccc(/C=N/Nc2cccc(C(=O)O)c2)cc1`, for which the EC50 is 3.43 µM. For `Cc1ccccc1Nc1nnc(SCC2CCCCO2)s1` (stereo not given), the EC50 is 5.76 µM. `CC(C)c1ccc(NC(=O)NC2CCCCC2)cc1`: the EC50 is 8.15 µM. For the compound `COc1cc(OC)cc(-c2nc3cc(C)ccc3o2)c1`, the EC50 was 29.3 µM. As for `COc1ccc(/C=N/N=C(\N)c2nonc2N)cc1`, the EC50 is 0.272 µM. In the case of `Fc1ccc(-c2cn3cc(C(F)(F)F)cc(Cl)c3n2)cc1`, the EC50 was 4.45 µM. Regarding `CCOc1ccc2nc(-c3ccccc3)[nH]c2c1`, the EC50 was 1.14 µM. Regarding `O=C(Nc1ccc2c(c1)OCCO2)c1cc2ccccc2o1`, the EC50 was 1.12 µM. For the compound `Cc1nc2ccc(-c3nc4ccccc4o3)cc2[nH]1`, the EC50 is 3.3 µM. Regarding `O=C(N/N=C/C(Br)=C\c1ccccc1)c1n[nH]c2c1CCC2`, the EC50 is 1.09 µM.

Regarding `Cc1ccsc1/C=N/Nc1nc2ccccc2[nH]1`, the EC50 is 8.27 µM.

Consider `CCCCOC(=O)Nc1nc2ccccc2s1`, for which the EC50 is 3.47 µM. As to `CCN(CC)c1ccc(C(=O)Nc2cccc(F)c2)cc1`, the EC50 was 1.06 µM. Regarding `Cc1cccc(Nc2nc(-c3cccs3)cs2)n1`, the 50% effective concentration (EC50) was 1.22 µM. With `COc1cc(SC)ccc1C(=O)Nc1ccc2c(c1)OCO2`, the EC50 was 1.29 µM. In the case of `COc1ccc2c(c1)CC/C2=N\OC(=O)c1ccccc1C` it was 1.97 µM. In the case of `Cc1cc(NC(=O)Nc2ccccc2F)ccc1Br`, the EC50 was 4.35 µM. Take `CCOC(=O)c1cnc2c(-c3ccccc3)cnn2c1N`: the concentration giving a half-maximal response (EC50) was 5.18 µM. For `Cn1cccc1/C=C1\CCc2ccccc2C1=O`, the EC50 is 1.63 µM. As for `COCCNc1nc(-c2cc3ccccc3o2)cs1`, the figure is 1.4 µM; as for `CC(C)c1oc(=O)cc2c1[C@@H](O)[C@H]1OC(=O)[C@@]3(C)C[C@@H](O)[C@@H](O)[C@@]2(C)C13` (stereo not given in full), 4.45 µM; as for `COc1cccc(/C=C/C(=O)c2ccc[nH]2)c1`, 14.9 µM. Turning to `CCOC(=O)CSc1nc(-c2ccncc2)ccc1C#N`, the EC50 is 6.77 µM. Turning to `Cc1ccc(N=Cc2sc(O)c3ccccc23)cc1`, the EC50 is 1.73 µM. Take `COc1cccc(CNc2ccc(Br)cn2)c1O`: the EC50 is 3.9 µM. For the compound `Cc1ccc(NC(=O)/C(Cl)=C/c2ccccc2)cc1C`, the EC50 was 2.96 µM. As to `Cc1nn2cc(-c3ccccc3)nc2s1`, the half-maximal effective concentration (EC50) is 2.03 µM. Turning to `Clc1ccc(-c2nnc(SCc3ccon3)o2)c(Cl)c1`, the half-maximal effective concentration (EC50) was 1.06 µM. For the compound `CC(C)CC(=O)N/C(N)=N/c1nc2ccccc2s1`, the EC50 was 0.762 µM. As for `N#C/C(=N\Nc1ccc(F)cc1)C(=N)N1CCCCC1`, the figure is 2.97 µM; as for `O=C(/C=C/c1ccccc1[N+](=O)[O-])Nc1ccccc1`, 10.4 µM; as for `CSc1ccccc1-c1nnc(-c2ccccc2)o1`, 3.7 µM. For `CC(/C=N/NC(=O)c1cccs1)=C\c1ccccc1`, the EC50 was 2.31 µM. Regarding `CCn1cnc2cc(NCc3nc4ccccc4n3C)ccc21`, the EC50 was 1.42 µM.

Take `NC(=O)c1ccc(-c2ncc(-c3ccccc3)o2)cc1`: the EC50 is 0.403 µM.

As for `O=C(Nc1nc(-c2nc3ccccc3s2)cs1)C1CC1`, the 50% effective concentration (EC50) was 15.6 µM. `COc1cccc(-c2nc3cc(C)ccc3o2)c1`: the EC50 is 1.05 µM. As to `Cc1ccc2nc(-c3ccc(NC(=O)COC(=O)c4ccc(=O)[nH]c4)cc3)sc2c1`, the EC50 is 0.66 µM. For `Cc1ccc(-c2noc(-c3ccccc3F)n2)cc1`, the EC50 is 6.83 µM. On to `Cc1nn(-c2ccc([N+](=O)[O-])cc2)c(N)c1-c1ccccc1`, for which the EC50 is 6.72 µM. As for `Brc1ccc(-c2ncc(-c3ccccc3)cn2)cc1`, the figure is 3.87 µM; as for `Brc1ccccc1/C=N/Nc1ccc2ccccc2n1`, 5.5 µM; as for `Cc1ccc(N2Cc3ccccc3C2=S)cc1`, 5.15 µM. `O=C(O)c1cccc(N/N=C/c2ccc(-c3ccccc3)cc2)c1`: the EC50 is 1.79 µM. Take `CCOC(=O)CSc1nc2cc(OC)ccc2cc1C#N`: the EC50 is 0.144 µM. Turning to `Cc1nc2c(ccc3nc(NC(=O)c4ccc5c(c4)OCCO5)sc32)s1`, the EC50 is 0.784 µM. For the compound `COc1ccc(C(=O)Nc2cc(OC)nc(OC)n2)cc1`, the EC50 was 12 µM. For `O=C(O)c1cccc(N/N=C/c2cccs2)c1`, the EC50 was 1.31 µM. Consider `O=C1/C(=C\c2ccco2)CCC/C1=C\c1ccco1`, for which the EC50 was 5 µM.

As to `COc1cc(/C=N/N(C)c2ccccc2)ccc1O`, the 50% effective concentration (EC50) was 2.64 µM. Regarding `CSCCNC(=O)c1ccc(C(C)(C)C)cc1`, the half-maximal effective concentration (EC50) was 5.25 µM.

As to `CCOC(=O)c1nn(-c2ccc(Br)cc2)cc1C(=O)c1cccc2ccccc12`, the EC50 is 3 µM.

Turning to `COc1cc2c(cc1NC(=O)C1CCCO1)oc1ccccc12` (stereo not given), the EC50 was 5.78 µM. For the compound `Oc1ccc(/C=N/Nc2cccc3cccnc23)c(O)c1`, the EC50 is 2.95 µM.

For `Nc1nc(-c2ccccc2)nc2sc3c(c12)CCCC3`, the EC50 is 0.873 µM. As for `CCCC(=O)Nc1ccc(C(=O)N/N=C/c2ccc[nH]2)cc1`, the figure is 2.99 µM; as for `CC(C)c1cc(C(=O)Nc2ccc3c(c2)OCO3)no1`, 3.28 µM; as for `Oc1ccc(N=Nc2n[nH]c(-c3ccccc3)n2)cc1`, 3.99 µM. As for `CN(C)S(=O)(=O)Oc1cccc(C(=O)Nc2ccc(Cl)cc2)c1`, the figure is 8.78 µM. In the case of `O=C(Nc1ccc(Cl)c(Cl)c1)Nc1ccccc1C(=O)O`, the EC50 was 1.67 µM. In the case of `O=C(Nc1nc2c(s1)CCCC2)c1cccs1`, the EC50 is 1.07 µM. For the compound `N#C/C(=N\Nc1ccc(F)cc1)C(=N)N1CCCCCC1`, the EC50 was 2.17 µM. As for `COc1ccc(C(=O)N=c2sc3ccccc3n2C)cc1`, the figure is 6.41 µM. As to `CC(C)c1cc(C(=O)Nc2cccc(Cl)c2)no1`, the concentration giving a half-maximal response (EC50) is 2.42 µM. Take `O=C(Nc1ccccn1)c1sc2cccc(F)c2c1Cl`: the concentration giving a half-maximal response (EC50) was 1.76 µM. On to `Fc1ccccc1SCc1nnc(-c2ccccc2Br)o1`, for which the EC50 was 0.818 µM. As for `COc1ccc2c(c1)OC/C(=C/c1cccs1)C2=O`, the figure is 5.52 µM; as for `O=C(COc1ccccc1Cl)Nc1ccc(Cl)cn1`, 15.4 µM; as for `Nc1ccc2nc(SCc3cccc(F)c3)sc2c1`, 3.68 µM.

On to `O=C(c1ccccc1)c1cnc(Nc2ccccc2Cl)s1`, for which the EC50 was 7.97 µM. In the case of `Cc1ccccc1Nc1nc(N)c2ccccc2n1` it was 1.99 µM.
